Read-outs that look alike come from different tables or passages of the source.
System: adjuvant-induced arthritis in rats
Experiment: Established adjuvant-induced arthritis in rats
Format: in vivo, rat (Charles River Lewis male rats)
Conditions: for ED50: Rattus norvegicus, 24 h, read-out: Adjuvant Arthritis ED50; for % reduction at the indicated dose (paw volume, Adjuvant Arthritis): 9 mg/kg
[1] = oral by gavage, 7 daily doses, ED50% decrease from control paw volume (uninjected left hind paw), read one day after last dose

SMILES | ED50 (po) [mg/kg] | ED50 [1] [mg/kg] | % reduction at the indicated dose (paw volume, Adjuvant Arthritis) (oral by gavage, 7 daily doses) [%]
CC(=O)Oc1ccccc1C(=O)O [Aspirin, aspirin, reference compound] | 305 |  | 
FC(F)C(F)(F)Sc1nc2c([nH]1)COc1cc(Cl)c(Cl)cc1-2 [Example 1, 7,8-Dichloro-3,4-dihydro(or 1,4-dihydro)-2-[(1,1,2,2-tetrafluoroethyl)-thio]-[1]benzopyrano[3,4-d]imidazole] |  | 8.2 | 
O=S(=O)(c1nc2c([nH]1)COc1cc(Cl)c(Cl)cc1-2)C(F)(F)C(F)F [Example 2, 7,8-Dichloro-3,4-dihydro(or 1,4-dihydro)-2-[(1,1,2,2-tetrafluoroethyl)sulfonyl]-[1]benzopyrano[3,4-d]imidazole] |  | 3.1 | 
FC(F)C(F)(F)Sc1nc2c([nH]1)COc1ccc(Cl)cc1-2 [Example 4] |  | > 9 | 30
Fc1ccc2c(c1)OCc1[nH]c(SC(F)(F)C(F)F)nc1-2 [Example 5] |  | 50 | 
O=S(=O)(c1nc2c([nH]1)COc1cc(F)ccc1-2)C(F)(F)C(F)F [Example 6] |  | > 9 | 22
CC(C)Cc1ccc(C(C)C(=O)O)cc1 (centres unmarked) [Ibuprofen, ibuprofen, reference compound] |  | 100 | 
COc1ccc2c(c1)c(CC(=O)O)c(C)n2C(=O)c1ccc(Cl)cc1 [Indomethacin, indomethacin, reference compound] | 0.3 |  | 
CCCCC1C(=O)N(c2ccccc2)N(c2ccccc2)C1=O [Phenylbutazone, phenylbutazone, reference compound] |  | 10 | 

From patent US4305954A, “Antiinflammatory 3,4-dihydro(or 1,4-dihydro)-2-[(substituted)thio]-[1]benzopyrano[3,4-d]imidazoles and their corresponding sulfoxides and sulfones” (E. I. Du Pont de Nemours and Company, priority 1981, dated 1981)
